Structures are written as SMILES.

What all share (assay): biochemical
What all share (design): KINOMEscan competition binding panel (Eurofins DiscoverX), single concentration, % inhibition
Common to all, as to conditions: read-out: 7 at 1 µM % inhibition

One test concerns the target T1, PRP4 (Homo sapiens, UniProt Q13523).
T1 construct: gene PRPF4B
The procedure, abridged:
(§1)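 A single 1 µM concentration of each compound is screened across upwards of 400 human kinases using the KINOMEscan format.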

The next test has as its target KIT(L576P) (Homo sapiens, UniProt P10721, L576P). The procedure, abridged: as §1
In the next test the target is PLK2 (Homo sapiens, UniProt Q9NYY3). The procedure, abridged:
as §1

In another test the target is T2, CDC2L2 (Homo sapiens, UniProt Q9UQ88).
T2 construct: gene CDK11A
A digest of the protocol:
as §1

The target in the next test is FGFR4 (Homo sapiens, UniProt P22455). A digest of the protocol:
as §1

For another test, the target named is CDKL2 (Homo sapiens, UniProt Q92772). The procedure, abridged: as §1
In another test the target is INSR (Homo sapiens, UniProt P06213). A digest of the protocol:
as §1

A further test has as its target PRKCE (Homo sapiens, UniProt Q02156). The procedure, abridged:
as §1

In a further test the target is CAMK2B (Homo sapiens, UniProt Q13554). A digest of the protocol:
as §1

The target in the next test is TBK1 (Homo sapiens, UniProt Q9UHD2). The procedure, abridged:
as §1

Another test addresses FLT3(D835Y) (Homo sapiens, UniProt P36888, D835Y). The procedure, abridged: as §1
For the next test, the target named is HASPIN (Homo sapiens, UniProt Q8TF76). A digest of the protocol:
as §1

The target in another test is T3, BRK (Homo sapiens, UniProt Q13882).
T3 construct: gene PTK6
T3 sequence (Q13882 whole entry): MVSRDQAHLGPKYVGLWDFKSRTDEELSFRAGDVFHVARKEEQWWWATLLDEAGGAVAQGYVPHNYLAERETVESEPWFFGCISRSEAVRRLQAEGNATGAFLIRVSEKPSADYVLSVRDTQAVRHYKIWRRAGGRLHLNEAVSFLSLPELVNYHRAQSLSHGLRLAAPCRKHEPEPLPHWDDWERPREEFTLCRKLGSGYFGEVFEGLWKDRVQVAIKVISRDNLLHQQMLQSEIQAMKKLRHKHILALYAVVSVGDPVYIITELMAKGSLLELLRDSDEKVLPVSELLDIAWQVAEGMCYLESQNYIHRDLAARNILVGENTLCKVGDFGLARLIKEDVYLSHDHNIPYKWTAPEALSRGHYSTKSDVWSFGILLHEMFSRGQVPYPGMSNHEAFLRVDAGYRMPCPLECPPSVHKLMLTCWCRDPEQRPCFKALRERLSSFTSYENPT
The procedure, abridged:
as §1

The target in another test is TLK2 (Homo sapiens, UniProt Q86UE8). The procedure, abridged:
as §1

A further test addresses ULK2 (Homo sapiens, UniProt Q8IYT8). A digest of the protocol:
as §1

Another test concerns the target ALK (Homo sapiens, UniProt Q9UM73). A digest of the protocol: as §1
For the next test, the target named is PAK3 (Homo sapiens, UniProt O75914). The procedure, abridged:
as §1

The next test concerns the target T4, YANK3 (Homo sapiens, UniProt Q86UX6).
T4 construct: gene STK32C
A digest of the protocol:
as §1

The next test has as its target PRKCH (Homo sapiens, UniProt P24723). The procedure, abridged:
as §1

For another test, the target named is PRKX (Homo sapiens, UniProt P51817). The procedure, abridged:
as §1

Another test concerns the target TSSK1B (Homo sapiens, UniProt Q9BXA7). A digest of the protocol:
as §1

For another test, the target named is RET(V804L) (Homo sapiens, UniProt P07949, V804L). A digest of the protocol:
as §1

The target of another test is T5, S6K1 (Homo sapiens, UniProt P23443).
T5 construct: gene RPS6KB1
T5 sequence (P23443 whole entry): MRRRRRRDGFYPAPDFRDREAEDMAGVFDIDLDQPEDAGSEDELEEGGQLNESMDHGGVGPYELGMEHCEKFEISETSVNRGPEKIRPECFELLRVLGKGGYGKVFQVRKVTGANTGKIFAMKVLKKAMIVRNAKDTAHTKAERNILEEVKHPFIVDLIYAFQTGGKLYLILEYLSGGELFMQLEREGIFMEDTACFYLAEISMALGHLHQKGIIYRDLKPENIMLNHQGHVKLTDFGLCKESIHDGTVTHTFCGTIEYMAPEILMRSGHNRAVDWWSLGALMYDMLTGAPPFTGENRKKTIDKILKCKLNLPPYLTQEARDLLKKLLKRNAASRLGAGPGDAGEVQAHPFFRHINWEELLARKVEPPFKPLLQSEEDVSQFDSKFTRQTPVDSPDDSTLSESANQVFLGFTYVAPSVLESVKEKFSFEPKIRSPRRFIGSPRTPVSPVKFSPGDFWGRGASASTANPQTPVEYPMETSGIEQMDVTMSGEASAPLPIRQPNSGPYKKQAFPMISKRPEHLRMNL
A digest of the protocol: as §1

For a further test, the target named is FGFR1 (Homo sapiens, UniProt P11362). A digest of the protocol:
as §1

Chain of RET(V804L) (P07949 whole entry V804L): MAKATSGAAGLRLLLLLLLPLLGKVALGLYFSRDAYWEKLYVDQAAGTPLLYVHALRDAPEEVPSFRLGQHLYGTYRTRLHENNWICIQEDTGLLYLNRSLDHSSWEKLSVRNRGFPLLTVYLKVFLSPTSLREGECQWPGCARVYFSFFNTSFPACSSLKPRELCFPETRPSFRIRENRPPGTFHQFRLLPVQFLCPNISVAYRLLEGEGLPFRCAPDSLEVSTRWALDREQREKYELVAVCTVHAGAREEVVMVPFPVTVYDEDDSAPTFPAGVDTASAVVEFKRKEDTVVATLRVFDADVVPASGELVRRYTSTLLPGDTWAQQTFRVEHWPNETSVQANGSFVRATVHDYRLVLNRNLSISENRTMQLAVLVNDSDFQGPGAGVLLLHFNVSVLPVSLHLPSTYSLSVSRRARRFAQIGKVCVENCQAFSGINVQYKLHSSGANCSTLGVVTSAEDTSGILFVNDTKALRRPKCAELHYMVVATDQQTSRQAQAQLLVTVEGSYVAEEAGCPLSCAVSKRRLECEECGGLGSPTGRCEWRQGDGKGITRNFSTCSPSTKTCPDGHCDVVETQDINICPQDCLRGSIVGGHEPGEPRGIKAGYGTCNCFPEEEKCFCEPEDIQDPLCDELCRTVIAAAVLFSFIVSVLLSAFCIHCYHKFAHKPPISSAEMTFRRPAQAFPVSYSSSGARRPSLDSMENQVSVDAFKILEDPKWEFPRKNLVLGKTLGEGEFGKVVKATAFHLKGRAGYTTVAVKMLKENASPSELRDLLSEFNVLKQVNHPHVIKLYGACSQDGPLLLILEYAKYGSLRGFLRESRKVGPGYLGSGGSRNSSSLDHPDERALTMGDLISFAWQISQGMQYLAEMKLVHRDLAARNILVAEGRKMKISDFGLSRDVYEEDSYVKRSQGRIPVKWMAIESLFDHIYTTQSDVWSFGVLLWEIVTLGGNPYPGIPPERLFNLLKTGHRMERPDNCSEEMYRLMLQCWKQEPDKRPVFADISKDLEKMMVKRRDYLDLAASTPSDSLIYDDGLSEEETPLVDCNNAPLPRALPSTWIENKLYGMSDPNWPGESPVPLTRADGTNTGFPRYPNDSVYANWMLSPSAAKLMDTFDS
Chain of TSSK1B (Q9BXA7 whole entry): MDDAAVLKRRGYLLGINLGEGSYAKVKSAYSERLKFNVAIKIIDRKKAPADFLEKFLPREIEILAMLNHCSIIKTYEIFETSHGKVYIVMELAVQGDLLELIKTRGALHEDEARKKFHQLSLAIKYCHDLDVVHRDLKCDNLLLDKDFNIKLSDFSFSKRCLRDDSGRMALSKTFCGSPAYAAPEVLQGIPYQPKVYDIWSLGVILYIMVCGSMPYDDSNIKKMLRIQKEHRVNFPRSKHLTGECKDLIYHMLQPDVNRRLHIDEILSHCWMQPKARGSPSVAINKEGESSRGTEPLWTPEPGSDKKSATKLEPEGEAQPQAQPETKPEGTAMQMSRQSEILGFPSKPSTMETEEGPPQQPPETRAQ
T1 sequence (Q13523 whole entry): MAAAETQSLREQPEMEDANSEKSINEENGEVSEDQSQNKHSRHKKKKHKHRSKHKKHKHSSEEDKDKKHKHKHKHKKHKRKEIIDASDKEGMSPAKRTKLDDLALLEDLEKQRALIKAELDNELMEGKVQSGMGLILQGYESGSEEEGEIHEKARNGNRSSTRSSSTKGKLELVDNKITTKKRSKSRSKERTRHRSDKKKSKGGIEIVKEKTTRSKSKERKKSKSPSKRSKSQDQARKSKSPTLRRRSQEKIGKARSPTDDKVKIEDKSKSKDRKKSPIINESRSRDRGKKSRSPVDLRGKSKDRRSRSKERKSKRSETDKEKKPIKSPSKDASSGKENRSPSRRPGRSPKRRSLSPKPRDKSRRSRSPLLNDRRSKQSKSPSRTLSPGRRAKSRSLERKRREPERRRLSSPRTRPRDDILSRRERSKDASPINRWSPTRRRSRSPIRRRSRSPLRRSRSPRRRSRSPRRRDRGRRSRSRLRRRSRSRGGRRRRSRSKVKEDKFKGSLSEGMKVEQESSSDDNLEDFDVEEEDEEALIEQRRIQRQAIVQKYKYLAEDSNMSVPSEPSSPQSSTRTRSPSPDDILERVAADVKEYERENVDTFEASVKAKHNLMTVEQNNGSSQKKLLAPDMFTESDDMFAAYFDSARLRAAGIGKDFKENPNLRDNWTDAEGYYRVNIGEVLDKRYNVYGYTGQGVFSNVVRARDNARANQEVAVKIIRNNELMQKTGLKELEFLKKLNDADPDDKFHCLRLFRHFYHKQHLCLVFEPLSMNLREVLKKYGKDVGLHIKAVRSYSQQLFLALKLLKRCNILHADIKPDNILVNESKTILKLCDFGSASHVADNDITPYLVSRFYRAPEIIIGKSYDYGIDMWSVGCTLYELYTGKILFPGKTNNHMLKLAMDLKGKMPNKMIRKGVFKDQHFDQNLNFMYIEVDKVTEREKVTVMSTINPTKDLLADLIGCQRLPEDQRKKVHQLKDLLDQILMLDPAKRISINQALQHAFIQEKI
Chain of INSR (P06213 whole entry): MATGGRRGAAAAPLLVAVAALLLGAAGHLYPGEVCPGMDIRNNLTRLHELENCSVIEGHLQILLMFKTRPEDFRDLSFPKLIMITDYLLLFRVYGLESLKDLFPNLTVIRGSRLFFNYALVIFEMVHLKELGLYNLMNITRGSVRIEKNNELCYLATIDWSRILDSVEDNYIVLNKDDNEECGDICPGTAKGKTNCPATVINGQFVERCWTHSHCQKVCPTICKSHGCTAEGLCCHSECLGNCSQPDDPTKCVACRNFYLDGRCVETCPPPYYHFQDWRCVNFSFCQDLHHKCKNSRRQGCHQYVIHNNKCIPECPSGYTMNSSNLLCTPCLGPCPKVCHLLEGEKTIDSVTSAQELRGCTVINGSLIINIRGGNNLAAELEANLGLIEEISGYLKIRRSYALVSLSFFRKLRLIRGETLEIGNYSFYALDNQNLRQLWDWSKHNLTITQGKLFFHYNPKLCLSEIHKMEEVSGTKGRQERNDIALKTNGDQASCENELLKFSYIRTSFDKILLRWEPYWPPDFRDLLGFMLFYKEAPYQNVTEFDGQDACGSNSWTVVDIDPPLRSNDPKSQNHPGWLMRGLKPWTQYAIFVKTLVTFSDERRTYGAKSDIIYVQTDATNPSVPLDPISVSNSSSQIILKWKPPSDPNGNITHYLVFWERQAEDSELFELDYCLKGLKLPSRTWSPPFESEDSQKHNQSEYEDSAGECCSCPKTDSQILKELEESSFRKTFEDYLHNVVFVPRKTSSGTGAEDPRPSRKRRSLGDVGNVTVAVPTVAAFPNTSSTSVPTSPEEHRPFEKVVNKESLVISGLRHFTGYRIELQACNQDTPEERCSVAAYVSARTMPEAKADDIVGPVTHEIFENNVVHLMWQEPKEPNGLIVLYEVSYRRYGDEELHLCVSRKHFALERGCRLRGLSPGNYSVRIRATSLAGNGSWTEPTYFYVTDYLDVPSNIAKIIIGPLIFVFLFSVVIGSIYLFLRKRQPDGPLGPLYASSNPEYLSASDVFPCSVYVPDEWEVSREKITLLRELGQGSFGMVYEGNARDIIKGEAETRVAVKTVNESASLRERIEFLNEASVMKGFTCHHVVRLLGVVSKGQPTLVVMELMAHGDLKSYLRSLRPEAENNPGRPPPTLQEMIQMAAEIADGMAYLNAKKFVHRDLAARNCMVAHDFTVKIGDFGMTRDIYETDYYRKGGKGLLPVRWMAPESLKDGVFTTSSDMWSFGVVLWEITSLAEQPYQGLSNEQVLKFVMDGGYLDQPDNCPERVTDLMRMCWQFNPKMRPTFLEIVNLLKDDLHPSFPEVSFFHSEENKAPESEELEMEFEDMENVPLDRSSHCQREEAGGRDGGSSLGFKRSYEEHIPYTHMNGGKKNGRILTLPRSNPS

In the case of `CNS(=O)(=O)c1ccc(N(C)C)c(Nc2ncnc3cc(OC)c(OC)cc23)c1` [compound 7, 3-((6,7-dimethoxyquinazolin-4-yl)amino)-4-(dimethylamino)-N-methylbenzenesulfonamide], the inhibition at 1 µM at PRP4 turned out to be 24%; at KIT(L576P), 49%; at PLK2 it was 13%; at CDC2L2 it was 0%; on FGFR4 it was 0%; on CDKL2 it was 0%. Besides, the inhibition at 1 µM worked out at 17% on INSR; 0% on PRKCE; 11% on CAMK2B; 0% on TBK1; 13% at FLT3(D835Y); 3% at HASPIN. For the same compound, the inhibition at 1 µM at BRK amounted to 0%; on TLK2 it was 0%; on ULK2, 19%; at ALK it was 10%; on PAK3, 54%; at YANK3, 0%. The inhibition at 1 µM worked out at 13% on PRKCH; 0% on PRKX; 0% at TSSK1B; 0% on RET(V804L); 23% on S6K1; 20% at FGFR1.

What is called inhibition is the share of the control response that was lost under treatment.

(Values after paper PMC7180948, “New Insights into 4-Anilinoquinazolines as Inhibitors of Cardiac Troponin I–Interacting Kinase (TNNi3K)” (Molecules, 2020).)
